Source: publication PMC13252604, “First Generation Proteolysis Targeting Chimeras (PROTACs) for the Treatment of Progeria” (Advanced Science, 2026)

Legend:
[1] = tested on: Lmna^G609G/G609G fibroblasts; test: Cell viability assay (MTT); type: cell-based, mouse; details: up to 50 µM, 24 h
Experimental: (§1) Cpd!" 2 Cpd#$ 9 Cpd!" 2 Cpd#$ 9
(§2) Supporting Figure S3. Cellular cytotoxicity of compounds 2 and 9. Viability of progeroid […]/G609G and wild type Lmna+/+ fibroblasts treated with compounds at 5-50 µM for 24 h. Viability is expressed as the percentage relative to cells treated with vehicle (0.1% DMSO) which are considered 100% viable. Error bars represent the average±SD from three independent experiments carried out in duplicate.
(§3) (also on this page, place not known: !" #$**+,-./-*-01+234 !" #$**+,-./-*-01+234 Cpd2 Cpd2Cpd9 Cpd9) […]
(§4) was saturated at 100 ppm. Relative STD effects were calculated by comparing the intensity of the signals in the STD-NMR spectrum with signal intensities of the reference spectrum (off-resonance). The STD signal with the highest intensity was set to 100%, a nd other STD signals were calculated accordingly. […]
(§5) Cell viability was assessed as previously described.[64] […] Once supernatants were removed, formazan crystals previously formed by viable cells were dissolved in DMSO (100 μL/ well) and absorbance was measured at 570 nm (OD570-630) using an Asys UVM 340 (Biochrom Ltd., Cambridge, UK) microplate reader. Background absorbance from blank wells containing only media with compound or vehicle were subtracted from each test well. […]

Lmna^+/+ fibroblasts = test: Cell viability assay (MTT); type: cell-based, mouse; details: up to 50 µM, 24 h
Experimental: as §1, §2, §3, §4, §5

CC1(C)Oc2cc3oc(=O)ccc3cc2C[C@@H]1OC(=O)CCCCCNc1cccc2c1C(=O)N(C1CCC(=O)NC1=O)C2=O (some centres unmarked) [compound 2]
cytotoxicity (cell viability) [1]: did not induce significant cytotoxicity
cytotoxicity (cell viability) (Lmna^+/+ fibroblasts): did not induce significant cytotoxicity
